What was measured:
[1] = solids; cited from earlier work
[2] = Jap. pat. Publn. (kokoku); cited from earlier work
[3] = Evaluation of pigment dispersibility (wetting point / flowing point); type: physicochemical; conditions: difference between wetting point and flowing point; liquid paraffin added to TiO2 containing 10% by weight of oily material
Protocol: With respect to various oily materials including some N-acylamino acid esters of the present invention, powdery compositions formed by blending each oily material with a powder pigment of titanium dioxide (TiO2) were evaluated or examined from various aspects. This will be described in detail below.
The minimum value in terms of parts by weight in which the powder was put together was defined as wetting point. […] Liquid paraffin was further added thereto from the wetting point, and the minimum numeral of parts by weight of the liquid paraffin in which the mixture came to show a fluidity was defined as flowing point.
The smaller the difference between the wetting point and the flowing point, the better the dispersibility (“Science of Fragrance”, published by Fragrance Journal in 1990, p. 390). Accordingly, the index of pigment dispersibility was evaluated in terms of the difference between the wetting point and the flowing point. That is, in Table 47, when the difference between the wetting point and the flowing point was up to 35, it was rated as ∘∘; when the difference was between 36 and 45, it was rated as ∘; and when the difference was between 46 and 55, it was rated as Δ; and when the difference was 56 or more, it was rated as ×.

[4] = Examination of solubility of a UV-A absorbent in various oily materials; conditions: amount of “Soft Shade DH” dissolved in 100 g of the oily material

Compound | solubility in water and oil [1] | compatibility with an oily solvent [2] | Pigment dispersibility [3] | Solubility [4]
COc1ccc(C(=O)CC(=O)c2ccc(C(C)(C)C)cc2)cc1 [4-t-butyl-4′-methoxybenzoylmethane] | sparingly soluble in water and oil |  |  | 
CCCCC(CC)C(=O)N(C)CCC(=O)OC (stereo not drawn) [N-2-ethylhexanoyl-N-methyl-β-alanine.methyl ester] |  | poor |  | 
CCCCCCCCCCCC(=O)N(C)CC(=O)OCCCCCCCCCCCCCCCC(C)C [Reference Synthesis Example 1, N-lauroylsarcosine isostearyl ester] |  |  | Δ (when the difference was between 46 and 55, it was rated as Δ) | X (The amount of the compound dissolved in 100 g of the oily material is less than 5 g.)
CCCCCCCCCCCC(=O)N(C)CC(=O)OCC(CCCCCCCC)CCCCCCCCCC (stereo not shown) [Reference Synthesis Example 2, N-lauroylsarcosine octyl dodecyl ester] |  |  |  | X (The amount of the compound dissolved in 100 g of the oily material is less than 5 g.)
CCCCCCCCCCCC(=O)N(C)CC(=O)OC(C)C [Synthesis Example 14, N-laurolysarcosine isopropyl ester] |  |  | ◯◯ | ◯ (It is at least 10 g.)
CCCCCCCCCCCC(=O)N(C)CCC(=O)OC(C)C [Synthesis Example 15, N-lauroyl-N-methyl-β-alanine isopropyl ester] |  |  | ◯◯ | ◯ (It is at least 10 g.)
CCCCCCCCCCCCCCCCCC(=O)OCC(O)CO (stereo not shown) [glycerol stearate] |  |  |  | X (The amount of the compound dissolved in 100 g of the oily material is less than 5 g.)
CCCCCCCCCCCCCC(=O)OC(C)C [isopropyl myristate] |  |  | Δ (when the difference was between 46 and 55, it was rated as Δ) | X (The amount of the compound dissolved in 100 g of the oily material is less than 5 g.)
CCCCCCCCCCCC(=O)N[C@@H](CCC(=O)OCC(CCCCCCCC)CCCCCCCCCC)C(=O)OCC(CCCCCCCC)CCCCCCCCCC (stereo partly shown) [lauroylglutamic acid octyldodecyl diester] |  |  | Δ (when the difference was between 46 and 55, it was rated as Δ) | 

From patent publication US6528068B1, “Cosmetic composition containing N-acyl neutral amino acid esters of lower alcohols” (Ajinomoto Co., Inc., priority 1997, dated 2003)
